Species: Rattus norvegicus
Assay: Open TG-GATES - Regimen: Daily Repeat
Format: toxicity, organism-based, Sprague-Dawley
Design: regimen Daily Repeat, gender Male, age 6 weeks
Settings: in vivo, po, route gavage; for APTT / Bas / Eos / Fbg / Hb / Ht / Lym / MCH / MCHC / MCV / Mono / Neu / PT / Plat / RBC / Ret / WBC: tissue Blood; for KIDNEY_L / KIDNEY_R / KIDNEY_TOTAL: tissue Kidney; for LIVER: tissue Liver; for A/G / ALP / ALT / AST / BUN / CRE / Ca / Cl / DBIL / GLC / IP / K / LDH / Na / PL / RALB / TBIL / TC / TG / TP / gamma-GTP: tissue Plasma
[1] = 1200 mg/kg, 72 h, dose level Middle, time 3 day
[2] = 1200 mg/kg, […], dose level Middle, time 7 day
[3] = 1200 mg/kg, […], dose level Middle, time 14 day
[4] = 1200 mg/kg, […], dose level Middle, time 28 day
[5] = 4000 mg/kg, 72 h, dose level High, time 3 day
[6] = 4000 mg/kg, […], dose level High, time 7 day
[7] = 4000 mg/kg, […], dose level High, time 14 day
[8] = 4000 mg/kg, […], dose level High, time 28 day

## CCO [ALCOHOL]
[1]
  TERMINAL_BW: 236.1 g
  APTT: 17.5 s
  Bas: 0%
  Eos: 1.2%
  Fbg: 209 mg/dL
  Hb: 13.9 g/dL
  Ht: 41%
  Lym: 74.6%
  MCH: 21.6 pg
  MCHC: 33.8%
  MCV: 64 fL
  Mono: 5.8%
  Neu: 18%
  PT: 11.3 s
  Plat: 124.3 x10_4/uL
  RBC: 642.4 x10_4/ul
  Ret: 7.7%
  WBC: 106.2 x10_2/uL
  KIDNEY_L: 1.1 g
  KIDNEY_R: 1.1 g
  KIDNEY_TOTAL: 2.1 g
  LIVER: 11.5 g
  A/G: 2.3
  ALP: 854.8 IU/L
  ALT: 38.2 IU/L
  AST: 65 IU/L
  BUN: 20.2 mg/dL
  CRE: 0.6 mg/dL
  Ca: 11.2 mg/dL
  Cl: 104 meq/L
  DBIL: 0.026 mg/dL
  GLC: 208.2 mg/dL
  IP: 9 mg/dL
  K: 4.7 meq/L
  LDH: 113.6 IU/L
  Na: 141 meq/L
  PL: 145.6 mg/dL
  RALB: 4.1 g/dL
  TBIL: 0.3 mg/dL
  TC: 74.2 mg/dL
  TG: 89.2 mg/dL
  TP: 5.8 g/dL
  gamma-GTP: 1.4 IU/L
[2]
  TERMINAL_BW: 268.6 g
  APTT: 18.1 s
  Bas: 0%
  Eos: 0.8%
  Fbg: 227.4 mg/dL
  Hb: 14.3 g/dL
  Ht: 42.2%
  Lym: 81.8%
  MCH: 21.3 pg
  MCHC: 33.8%
  MCV: 62.9 fL
  Mono: 6.2%
  Neu: 11.4%
  PT: 11 s
  Plat: 127.6 x10_4/uL
  RBC: 670.6 x10_4/ul
  Ret: 6.1%
  WBC: 112 x10_2/uL
  KIDNEY_L: 1.1 g
  KIDNEY_R: 1.2 g
  KIDNEY_TOTAL: 2.3 g
  LIVER: 13.2 g
  A/G: 2.3
  ALP: 946.6 IU/L
  ALT: 37.4 IU/L
  AST: 64.8 IU/L
  BUN: 20.8 mg/dL
  CRE: 0.5 mg/dL
  Ca: 10.6 mg/dL
  Cl: 103.8 meq/L
  DBIL: 0 mg/dL
  GLC: 202 mg/dL
  IP: 8.4 mg/dL
  K: 4.8 meq/L
  LDH: 108.4 IU/L
  Na: 141 meq/L
  PL: 154.4 mg/dL
  RALB: 4.1 g/dL
  TBIL: 0.3 mg/dL
  TC: 70.6 mg/dL
  TG: 132.4 mg/dL
  TP: 6 g/dL
  gamma-GTP: 1.4 IU/L
[3]
  TERMINAL_BW: 302.2 g
  APTT: 18.2 s
  Bas: 0%
  Eos: 1.2%
  Fbg: 227 mg/dL
  Hb: 15.4 g/dL
  Ht: 45.5%
  Lym: 80%
  MCH: 20.6 pg
  MCHC: 33.9%
  MCV: 60.8 fL
  Mono: 5.4%
  Neu: 13.6%
  PT: 11.4 s
  Plat: 115.9 x10_4/uL
  RBC: 749 x10_4/ul
  Ret: 4.5%
  WBC: 119.1 x10_2/uL
  KIDNEY_L: 1.2 g
  KIDNEY_R: 1.2 g
  KIDNEY_TOTAL: 2.4 g
  LIVER: 13.7 g
  A/G: 1.8
  ALP: 821.6 IU/L
  ALT: 33 IU/L
  AST: 62.2 IU/L
  BUN: 19.2 mg/dL
  CRE: 0.5 mg/dL
  Ca: 10.8 mg/dL
  Cl: 105 meq/L
  DBIL: 0.018 mg/dL
  GLC: 205.6 mg/dL
  IP: 7.4 mg/dL
  K: 4.5 meq/L
  LDH: 104.4 IU/L
  Na: 141.8 meq/L
  PL: 159.8 mg/dL
  RALB: 3.9 g/dL
  TBIL: 0.3 mg/dL
  TC: 79 mg/dL
  TG: 114.2 mg/dL
  TP: 6.1 g/dL
  gamma-GTP: 1 IU/L
[4]
  TERMINAL_BW: 371.8 g
  APTT: 17.5 s
  Bas: 0%
  Eos: 1.4%
  Fbg: 224 mg/dL
  Hb: 15.4 g/dL
  Ht: 46.3%
  Lym: 73.2%
  MCH: 19.1 pg
  MCHC: 33.3%
  MCV: 57.3 fL
  Mono: 6.6%
  Neu: 18.8%
  PT: 11.1 s
  Plat: 104.5 x10_4/uL
  RBC: 809 x10_4/ul
  Ret: 7%
  WBC: 96.6 x10_2/uL
  KIDNEY_L: 1.3 g
  KIDNEY_R: 1.4 g
  KIDNEY_TOTAL: 2.7 g
  LIVER: 14.7 g
  A/G: 1.5
  ALP: 558.4 IU/L
  ALT: 32.8 IU/L
  AST: 64 IU/L
  BUN: 21.4 mg/dL
  CRE: 0.6 mg/dL
  Ca: 10.2 mg/dL
  Cl: 107.4 meq/L
  DBIL: 0 mg/dL
  GLC: 221.2 mg/dL
  IP: 6.6 mg/dL
  K: 4.4 meq/L
  LDH: 83 IU/L
  Na: 141 meq/L
  PL: 151.4 mg/dL
  RALB: 3.6 g/dL
  TBIL: 0.3 mg/dL
  TC: 70.6 mg/dL
  TG: 181.6 mg/dL
  TP: 6.1 g/dL
  gamma-GTP: 1.4 IU/L
[5]
  TERMINAL_BW: 222.6 g
  APTT: 17.5 s
  Bas: 0%
  Eos: 1.4%
  Fbg: 223.4 mg/dL
  Hb: 14 g/dL
  Ht: 41.5%
  Lym: 78%
  MCH: 20.9 pg
  MCHC: 33.7%
  MCV: 62.1 fL
  Mono: 5.6%
  Neu: 15.8%
  PT: 11.3 s
  Plat: 129.6 x10_4/uL
  RBC: 669.2 x10_4/ul
  Ret: 5.5%
  WBC: 91 x10_2/uL
  KIDNEY_L: 1 g
  KIDNEY_R: 1 g
  KIDNEY_TOTAL: 2 g
  LIVER: 10.5 g
  A/G: 2.3
  ALP: 775 IU/L
  ALT: 32 IU/L
  AST: 61 IU/L
  BUN: 16.8 mg/dL
  CRE: 0.5 mg/dL
  Ca: 10.7 mg/dL
  Cl: 103.6 meq/L
  DBIL: 0.022 mg/dL
  GLC: 206 mg/dL
  IP: 8.2 mg/dL
  K: 4.7 meq/L
  LDH: 95.2 IU/L
  Na: 140 meq/L
  PL: 146.4 mg/dL
  RALB: 4 g/dL
  TBIL: 0.3 mg/dL
  TC: 77.6 mg/dL
  TG: 124.4 mg/dL
  TP: 5.7 g/dL
  gamma-GTP: 1.4 IU/L
[6]
  TERMINAL_BW: 252.2 g
  APTT: 18.2 s
  Bas: 0%
  Eos: 1%
  Fbg: 216.8 mg/dL
  Hb: 14.1 g/dL
  Ht: 41.6%
  Lym: 71%
  MCH: 20.7 pg
  MCHC: 33.8%
  MCV: 61.1 fL
  Mono: 6.4%
  Neu: 21.8%
  PT: 11.5 s
  Plat: 110.2 x10_4/uL
  RBC: 680.2 x10_4/ul
  Ret: 5.4%
  WBC: 93.3 x10_2/uL
  KIDNEY_L: 1.1 g
  KIDNEY_R: 1.1 g
  KIDNEY_TOTAL: 2.1 g
  LIVER: 11.7 g
  A/G: 2.4
  ALP: 842.2 IU/L
  ALT: 32.6 IU/L
  AST: 63 IU/L
  BUN: 17 mg/dL
  CRE: 0.5 mg/dL
  Ca: 10.6 mg/dL
  Cl: 103.8 meq/L
  DBIL: 0 mg/dL
  GLC: 206.8 mg/dL
  IP: 8.1 mg/dL
  K: 4.4 meq/L
  LDH: 92.2 IU/L
  Na: 141.2 meq/L
  PL: 145.6 mg/dL
  RALB: 4.1 g/dL
  TBIL: 0.3 mg/dL
  TC: 68.2 mg/dL
  TG: 99.6 mg/dL
  TP: 5.9 g/dL
  gamma-GTP: 1.4 IU/L
[7]
  TERMINAL_BW: 307.3 g
  APTT: 16.8 s
  Bas: 0%
  Eos: 0.8%
  Fbg: 217.6 mg/dL
  Hb: 15 g/dL
  Ht: 45%
  Lym: 82.8%
  MCH: 20.4 pg
  MCHC: 33.3%
  MCV: 61.2 fL
  Mono: 5%
  Neu: 11.4%
  PT: 11.5 s
  Plat: 112.1 x10_4/uL
  RBC: 737 x10_4/ul
  Ret: 4.1%
  WBC: 125 x10_2/uL
  KIDNEY_L: 1.2 g
  KIDNEY_R: 1.2 g
  KIDNEY_TOTAL: 2.5 g
  LIVER: 13.6 g
  A/G: 1.9
  ALP: 806.4 IU/L
  ALT: 37.8 IU/L
  AST: 71.4 IU/L
  BUN: 18.6 mg/dL
  CRE: 0.6 mg/dL
  Ca: 10.8 mg/dL
  Cl: 104.2 meq/L
  DBIL: 0.05 mg/dL
  GLC: 207.2 mg/dL
  IP: 7.9 mg/dL
  K: 4.5 meq/L
  LDH: 121.4 IU/L
  Na: 141.6 meq/L
  PL: 160.8 mg/dL
  RALB: 3.9 g/dL
  TBIL: 0.3 mg/dL
  TC: 78.8 mg/dL
  TG: 143 mg/dL
  TP: 6 g/dL
  gamma-GTP: 1 IU/L
[8]
  TERMINAL_BW: 369.5 g
  APTT: 16.3 s
  Bas: 0%
  Eos: 1.6%
  Fbg: 210.6 mg/dL
  Hb: 15.5 g/dL
  Ht: 46.4%
  Lym: 70.4%
  MCH: 19.2 pg
  MCHC: 33.5%
  MCV: 57.2 fL
  Mono: 7.6%
  Neu: 20.6%
  PT: 11.4 s
  Plat: 106.5 x10_4/uL
  RBC: 813.2 x10_4/ul
  Ret: 6%
  WBC: 123.4 x10_2/uL
  KIDNEY_L: 1.3 g
  KIDNEY_R: 1.3 g
  KIDNEY_TOTAL: 2.7 g
  LIVER: 15 g
  A/G: 1.8
  ALP: 599.4 IU/L
  ALT: 34.6 IU/L
  AST: 66.6 IU/L
  BUN: 19.6 mg/dL
  CRE: 0.6 mg/dL
  Ca: 10.3 mg/dL
  Cl: 107 meq/L
  DBIL: 0.006 mg/dL
  GLC: 213.6 mg/dL
  IP: 6.2 mg/dL
  K: 4.5 meq/L
  LDH: 89.6 IU/L
  Na: 140.4 meq/L
  PL: 153.6 mg/dL
  RALB: 3.9 g/dL
  TBIL: 0.3 mg/dL
  TC: 73.2 mg/dL
  TG: 173.4 mg/dL
  TP: 6.1 g/dL
  gamma-GTP: 1.4 IU/L

Source: ChEMBL document CHEMBL3885861, “Open TG-GATES”
